{"source": "paper PMC7684764", "about": "(Journal of medicinal chemistry, 2020)", "key": {"MV4–11 cells [1]": {"test_system": "MV4–11 cells", "experiment": "EC50 analysis", "assay_type": "cell-based", "details": "MV4–11, 50 μM"}, "MV4–11 cells [2]": {"test_system": "MV4–11 cells", "experiment": "Western blot analysis", "assay_type": "cell-based", "details": "for pro-caspase3 cleavage / FLT3 and STAT5 levels: wt-p53 FLT3-ITD MV4–11, 24 h, Figure 5A; for increase in Hsp70 levels: 24 h, Figures 5A and C (MV4–11 and RS4;11)"}, "HDAC1": {"target": "HDAC1 (Homo sapiens, UniProt Q13547)", "sequence (Q13547 whole entry)": "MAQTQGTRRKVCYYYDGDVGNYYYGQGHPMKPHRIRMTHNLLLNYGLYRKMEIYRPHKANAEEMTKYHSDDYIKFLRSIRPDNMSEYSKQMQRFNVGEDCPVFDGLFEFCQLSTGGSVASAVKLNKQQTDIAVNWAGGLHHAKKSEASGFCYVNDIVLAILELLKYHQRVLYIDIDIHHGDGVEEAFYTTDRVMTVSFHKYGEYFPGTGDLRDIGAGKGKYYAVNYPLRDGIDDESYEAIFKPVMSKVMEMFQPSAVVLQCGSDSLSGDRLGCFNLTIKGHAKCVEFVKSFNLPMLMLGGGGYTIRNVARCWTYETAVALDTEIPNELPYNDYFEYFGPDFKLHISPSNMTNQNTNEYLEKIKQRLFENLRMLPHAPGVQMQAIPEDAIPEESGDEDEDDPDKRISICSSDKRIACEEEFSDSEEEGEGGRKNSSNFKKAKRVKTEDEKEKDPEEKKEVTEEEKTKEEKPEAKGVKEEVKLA", "experiment": "In vitro HDACs inhibition fluorescence assay", "assay_type": "biochemical", "details": "IC50 curves after pre-incubation of 10, 30, 60 and 90 min, Figure 3A"}, "MV4–11 cells [3]": {"test_system": "MV4–11 cells", "experiment": "Release profile by western blot after drug wash-out", "assay_type": "cell-based", "details": "MV4–11, 3 h treatment, up to 6 h, Figure 3B"}, "HDAC3": {"target": "HDAC3 (Homo sapiens, UniProt O15379)", "sequence (O15379 whole entry)": "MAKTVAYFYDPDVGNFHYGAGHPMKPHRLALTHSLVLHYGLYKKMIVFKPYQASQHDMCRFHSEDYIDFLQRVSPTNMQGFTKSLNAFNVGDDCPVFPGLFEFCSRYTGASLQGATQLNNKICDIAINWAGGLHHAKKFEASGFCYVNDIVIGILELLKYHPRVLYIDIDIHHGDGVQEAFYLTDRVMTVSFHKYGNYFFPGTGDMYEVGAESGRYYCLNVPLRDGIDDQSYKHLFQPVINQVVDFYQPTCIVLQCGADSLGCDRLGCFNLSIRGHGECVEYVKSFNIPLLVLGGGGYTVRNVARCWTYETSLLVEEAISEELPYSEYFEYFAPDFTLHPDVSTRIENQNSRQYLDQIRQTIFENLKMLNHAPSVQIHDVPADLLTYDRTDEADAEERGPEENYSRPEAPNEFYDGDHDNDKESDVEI", "sequence (Q9Y618 395-489 partner limits assumed)": "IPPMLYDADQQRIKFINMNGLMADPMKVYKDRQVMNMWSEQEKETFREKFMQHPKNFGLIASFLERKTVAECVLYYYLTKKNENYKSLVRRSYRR", "experiment": "In vitro HDACs inhibition fluorescence assay", "assay_type": "biochemical"}, "NCI60 tumor cell lines": {"test_system": "NCI60 tumor cell lines", "experiment": "NCI60 tumor cell lines screen, whole panel", "assay_type": "cell-based", "details": "concentrations under 10 μM"}, "RS4;11 cells": {"test_system": "RS4;11 cells", "experiment": "Western blot analysis", "assay_type": "cell-based", "details": "wt-p53 wt-FLT3 RS4;11, 24 h; 13a 200 nM, panobinostat 100 nM, vorinostat 5000 nM"}, "[4]": {"test_system": "Salmonella typhimurium strain (with modified TA100)", "details": "with liver S9 fraction activation"}, "[5]": {"target": "T1, APN (CD13, microsomal aminopeptidase) (Sus scrofa, UniProt P15145)", "T1 sequence (P15145 1-963)": "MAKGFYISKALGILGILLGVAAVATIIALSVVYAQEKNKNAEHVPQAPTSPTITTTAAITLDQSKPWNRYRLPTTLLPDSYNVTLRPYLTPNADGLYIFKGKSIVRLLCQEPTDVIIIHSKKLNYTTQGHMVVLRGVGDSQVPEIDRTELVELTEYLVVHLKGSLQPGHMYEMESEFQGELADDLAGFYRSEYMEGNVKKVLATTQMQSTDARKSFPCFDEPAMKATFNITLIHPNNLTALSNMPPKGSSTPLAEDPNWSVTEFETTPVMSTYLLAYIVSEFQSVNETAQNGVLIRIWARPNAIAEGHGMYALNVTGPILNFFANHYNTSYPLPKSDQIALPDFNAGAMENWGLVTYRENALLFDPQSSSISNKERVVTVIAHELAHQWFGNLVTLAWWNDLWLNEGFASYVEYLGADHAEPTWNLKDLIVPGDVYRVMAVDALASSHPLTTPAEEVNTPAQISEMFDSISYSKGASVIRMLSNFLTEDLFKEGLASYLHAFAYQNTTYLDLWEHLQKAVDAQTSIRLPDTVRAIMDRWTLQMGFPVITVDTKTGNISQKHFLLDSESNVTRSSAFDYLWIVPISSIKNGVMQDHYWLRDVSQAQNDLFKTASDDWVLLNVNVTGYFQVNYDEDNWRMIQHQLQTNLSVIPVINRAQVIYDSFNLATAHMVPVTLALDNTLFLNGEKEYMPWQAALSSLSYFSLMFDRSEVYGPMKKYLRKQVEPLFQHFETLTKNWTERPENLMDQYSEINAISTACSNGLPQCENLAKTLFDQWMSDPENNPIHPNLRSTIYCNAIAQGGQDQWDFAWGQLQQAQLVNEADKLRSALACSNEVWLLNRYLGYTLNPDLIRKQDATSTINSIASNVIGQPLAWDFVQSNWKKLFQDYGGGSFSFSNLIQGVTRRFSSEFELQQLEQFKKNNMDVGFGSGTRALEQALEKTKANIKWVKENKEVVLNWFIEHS", "experiment": "CD13 inhibition assay", "assay_type": "biochemical, porcine", "details": "13a 50 μM and 10 μM, Figure S4"}, "HL60 cells": {"test_system": "HL60 cells", "experiment": "Western blot analysis", "assay_type": "cell-based", "details": "p53-null wt-FLT3 HL60, 24 h, Figure 5D"}, "MV4–11 cells [6]": {"test_system": "MV4–11 cells", "experiment": "Combination index", "assay_type": "cell-based", "details": "MV4–11, 48 h, lower concentrations, Figure S8"}, "SR cell line": {"test_system": "SR cell line", "experiment": "Western blot analysis", "assay_type": "cell-based", "details": "wt-p53 SR, 24 h, Figure S7"}}}
{"smiles": "Cc1[nH]c2ccccc2c1CCNCc1ccc(/C=C/C(=O)NN(CCCO)CCCO)cc1.O=C(O)C(F)(F)F", "note": "[Compound 30, (E)-N-(4-(3-(2,2-bis(3-hydroxypropyl)hydrazinyl)-3-oxoprop-1-en-1-yl)benzyl)-2-(2-methyl-1H-indol-3-yl)ethanaminium 2,2,2-trifluoroacetate]", "values": [{"measurement": "effect on cell proliferation at 50 μM", "setting": "MV4–11 cells [1]", "result": "do not affect cell proliferation"}]}
{"smiles": "Nc1ccccc1NC(=O)c1ccc(CNC(=O)OCc2cccnc2)cc1", "note": "[Entinostat, entinostat]", "values": [{"measurement": "pro-caspase3 cleavage", "setting": "MV4–11 cells [2]", "result": "observed"}]}
{"smiles": "Cc1[nH]c2ccccc2c1CCNCc1ccc(/C=C/C(=O)NN(C)C)cc1.O=C(O)C(F)(F)F", "note": "[Compound 26a, (E)-N-(4-(3-(2,2-dimethylhydrazinyl)-3-oxoprop-1-en-1-yl)benzyl)-2-(2-methyl-1H-indol-3-yl)ethanaminium 2,2,2-trifluoroacetate]", "values": [{"measurement": "effect on cell proliferation at 50 μM", "setting": "MV4–11 cells [1]", "result": "do not affect cell proliferation"}]}
{"smiles": "Cc1[nH]c2ccccc2c1CCNCc1ccc(/C=C/C(=O)NO)cc1", "note": "[Panobinostat]", "values": [{"measurement": "on-kinetics, HDAC1", "setting": "HDAC1", "result": "fast-on kinetics"}, {"measurement": "acetylation of tubulin", "setting": "MV4–11 cells [3]", "result": "completely disappears after 30 min"}, {"measurement": "histone acetylation after removal of drug", "setting": "MV4–11 cells [3]", "result": "begins to decrease after 1 h"}, {"measurement": "on-kinetics, HDAC3", "setting": "HDAC3", "result": "fast-on kinetics"}, {"measurement": "increase in Hsp70 levels", "setting": "MV4–11 cells [2]", "result": "observed"}, {"measurement": "pro-caspase3 cleavage", "setting": "MV4–11 cells [2]", "result": "observed"}, {"measurement": "number of the 60 cell lines with lethality under 10 μM", "setting": "NCI60 tumor cell lines", "result": 18}, {"measurement": "cleavage of pro-caspase3", "setting": "RS4;11 cells", "result": "observed"}, {"measurement": "mutagenicity, Mini-Ames", "setting": "[4]", "result": "Ames positive"}]}
{"smiles": "Cc1[nH]c2ccccc2c1CCNCc1ccc(/C=C/C(=O)NN2CCCC2)cc1.O=C(O)C(F)(F)F", "note": "[Compound 26b, (E)-2-(2-methyl-1H-indol-3-yl)-N-(4-(3-oxo-3-(pyrrolidin-1-ylamino)prop-1-en-1-yl)benzyl)ethanaminium 2,2,2-trifluoroacetate]", "values": [{"measurement": "effect on cell proliferation at 50 μM", "setting": "MV4–11 cells [1]", "result": "do not affect cell proliferation"}]}
{"smiles": "Nc1ccc2cc3ccccc3cc2c1", "note": "[2-aminoanthracene]", "values": [{"measurement": "mutagenicity, Mini-Ames", "setting": "[4]", "result": "Ames positive"}]}
{"smiles": "CCCNNC(=O)/C=C/c1ccc(CNCCc2c(C)[nH]c3ccccc23)cc1.O=C(O)C(F)(F)F", "note": "[Compound 13a, (E)-2-(2-methyl-1H-indol-3-yl)-N-(4-(3-oxo-3-(2-propylhydrazinyl)prop-1-en-1-yl)benzyl)ethanaminium 2,2,2-trifluoroacetate]", "values": [{"measurement": "inhibition of APN", "setting": "[5]", "result": "does not show any inhibition"}, {"measurement": "acetylation of tubulin", "setting": "MV4–11 cells [3]", "result": "does not increase the acetylation of tubulin"}, {"measurement": "histone acetylation after removal of drug", "setting": "MV4–11 cells [3]", "result": "does not decrease within 6 h"}, {"measurement": "increase in Hsp70 levels", "setting": "MV4–11 cells [2]", "result": "not observed"}, {"measurement": "FLT3 and STAT5 levels", "setting": "MV4–11 cells [2]", "result": "down-regulate"}, {"measurement": "pro-caspase3 cleavage", "setting": "MV4–11 cells [2]", "result": "observed"}, {"measurement": "number of the 60 cell lines with lethality under 10 μM", "setting": "NCI60 tumor cell lines", "result": 10}, {"measurement": "pro-caspase3 cleavage", "setting": "HL60 cells", "result": "not cleaved"}, {"measurement": "cleavage of pro-caspase3", "setting": "RS4;11 cells", "result": "only observed at high dose"}, {"measurement": "interaction of 13a with 17-AAG in anti-proliferation activity", "setting": "MV4–11 cells [6]", "result": "antagonized"}, {"measurement": "pro-caspase3 cleavage", "setting": "SR cell line", "result": "does not cleave"}, {"measurement": "mutagenicity, Mini-Ames", "setting": "[4]", "result": "not mutagenic"}]}
{"smiles": "Cc1[nH]c2ccccc2c1CCNCc1ccc(/C=C/C(=O)NN2CCCCC2)cc1.O=C(O)C(F)(F)F", "note": "[Compound 26c, (E)-2-(2-methyl-1H-indol-3-yl)-N-(4-(3-oxo-3-(piperidin-1-ylamino)prop-1-en-1-yl)benzyl)ethanaminium 2,2,2-trifluoroacetate]", "values": [{"measurement": "effect on cell proliferation at 50 μM", "setting": "MV4–11 cells [1]", "result": "do not affect cell proliferation"}]}
{"smiles": "CCCNNC(=O)c1ccc(CNC(=O)/C=C/c2ccccc2)cc1", "note": "[LP411]", "values": [{"measurement": "FLT3 and STAT5 levels", "setting": "MV4–11 cells [2]", "result": "down-regulate"}, {"measurement": "pro-caspase3 cleavage", "setting": "MV4–11 cells [2]", "result": "observed"}]}
